Test results: patent US12428415B2, “Matriptase 2 inhibitors and uses thereof” (Disc Medicine, Inc., priority 2018, dated 2025)

Molecular target: T1, Human Recombinant Matriptase 2 (Homo sapiens, UniProt Q8IU80)
T1 construct: purchased Enzo Life Sciences (an in-house preparation was also used) ALX-201-752-1
T1 sequence (Q8IU80 1-811): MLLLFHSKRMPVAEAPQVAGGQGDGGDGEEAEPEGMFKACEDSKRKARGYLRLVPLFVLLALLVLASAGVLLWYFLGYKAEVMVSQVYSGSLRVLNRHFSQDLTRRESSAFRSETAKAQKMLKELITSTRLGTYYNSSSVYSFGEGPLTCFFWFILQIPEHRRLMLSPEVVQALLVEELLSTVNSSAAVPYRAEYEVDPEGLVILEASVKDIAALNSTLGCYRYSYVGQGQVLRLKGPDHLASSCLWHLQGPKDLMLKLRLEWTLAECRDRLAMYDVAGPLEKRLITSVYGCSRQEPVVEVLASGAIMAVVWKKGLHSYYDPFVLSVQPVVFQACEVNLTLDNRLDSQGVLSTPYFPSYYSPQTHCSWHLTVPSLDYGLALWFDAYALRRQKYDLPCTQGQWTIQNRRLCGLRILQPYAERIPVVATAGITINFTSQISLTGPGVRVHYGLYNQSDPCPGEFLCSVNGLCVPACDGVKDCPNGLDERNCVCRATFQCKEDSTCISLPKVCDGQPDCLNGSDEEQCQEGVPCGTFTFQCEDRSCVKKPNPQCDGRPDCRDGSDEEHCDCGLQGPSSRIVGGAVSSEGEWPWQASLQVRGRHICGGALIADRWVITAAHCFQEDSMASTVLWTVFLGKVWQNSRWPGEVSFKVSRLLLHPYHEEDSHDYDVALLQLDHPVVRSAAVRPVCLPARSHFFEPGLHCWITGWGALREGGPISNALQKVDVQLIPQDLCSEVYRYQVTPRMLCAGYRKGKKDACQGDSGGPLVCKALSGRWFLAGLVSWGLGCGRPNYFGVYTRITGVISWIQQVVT
Assay: Matriptase 2 fluorescence based inhibition assay, Method B (50 mM TRIS pH 7.5, 150 mM NaCl, 0.01% gelatin)
Assay type: biochemical
Settings: 1 uM compound, Assay Used = B; for inhibition at 1 µM: read-out: Mar-2 % inhibition at 1 uM
Experimental: Test compounds were evaluated for their potential to inhibit Human Recombinant Matriptase 2 (in-house and commercial protein from Enzo Life Sciences—cat log -ALX-201-752-1) using fluorescence based assay. The concentration of Recombinant Matriptase 2 and the substrate used in the assay was: 7 nM (commercial) and 15 nM (Inhouse Matriptase 2) and 100 μM (Boc-Gln-Ala-Arg-7-amido-4-methyl coumarin hydrobromide—Cat log: B4153-Sigma and I-1550 from Bachem) respectively. The assay buffer used was 50 mM TRIS pH 7.5, 150 mM NaCl, 0.01% gelatin (G1393 Sigma). The assay was performed using 384 well black flat bottom plate from grenier (Cat log: 781076) at 25° C. The enzyme and compound preincubated for 30 mins, plate was read 60 mins after substrate addition at wavelength Ex: 360/Em:480 nm. The final assay volume of was 20 μl. Stock solution of compounds were initially prepared in DMSO and appropriate dilutions were made for screening and IC50 determination (final DMSO conc in the assay was 1%). All the measurements were carried out using the Spectramax M5, Molecular devices. The compounds were screened at 1 and 10 μM concentration and IC50 was determined for the interested compounds.
To determine IC50 values, dose response curves were generated by plotting percentage inhibition as a function of inhibitor concentration and the data was fitted to sigmoidal non-linear regression equation (variable slope) using Graph Pad prism software V7.

SMILES | inhibition at 1 µM [%] | Mar-2 % inhibition at 1 uM
CC1(O)CCC(NC(=O)c2cc3ccc(C(=N)N)cc3n2Cc2cccc3ccccc23)CC1 (stereo not drawn) [Compound I-436] | 50 to 75 | –
N=C(N)c1ccc2cc(C(N)=O)n(Cc3cccc4ccccc34)c2c1 [Compound I-437] | 75 to 100 | –
N=C(N)c1ccc2cc(C(=O)NC3CCCCC3)n(Cc3cccc4ccccc34)c2c1 [Compound I-438] | 25 to 50 | –
N=C(N)c1ccc2cc(C(=O)N3CC[C@@H](O)C3)n(Cc3cccc4ccccc34)c2c1 [Compound I-441] | 25 to 50 | –
N=C(N)c1ccc2cc(C(=O)N3CCC(CO)CC3)n(Cc3cccc4ccccc34)c2c1 [Compound I-444] | 25 to 50 | –
N=C(N)c1ccc2cc(C(=O)N3CC[C@@H](N)C3)n(Cc3cccc4ccccc34)c2c1 [Compound I-446] | 50 to 75 | –
CN(C(=O)c1cc2ccc(C(=N)N)cc2n1Cc1cccc2ccccc12)[C@H]1CC[C@H](N)CC1 [Compound I-451] | 50 to 75 | –
N=C(N)c1ccc2cc(C(=O)N(CCO)C3CCC(N)CC3)n(Cc3cccc4ccccc34)c2c1 (stereo not drawn) [Compound I-453] | 50 to 75 | –
N=C(N)c1ccc2cc(C(=O)O)n(Cc3cccc4ccccc34)c2c1 [Compound I-458, 6-carbamimidoyl-1-(naphthalen-1-ylmethyl)-1H-indole-2-carboxylic Acid] | 75 to 100 | –
N=C(N)c1ccc2cc(C(=O)Nc3cccc(N4CCCC4)n3)n(Cc3cccc4ccccc34)c2c1 [Compound I-461] | 25 to 50 | –
N=C(N)c1ccc2cc(C(=O)NCC3(C(N)=O)CCCCC3)n(Cc3cccc4ccccc34)c2c1 [Compound I-464] | 50 to 75 | –
N=C(N)c1ccc2cc(C(=O)NCCCN)n(Cc3cccc4ccccc34)c2c1 [Compound I-466] | 75 to 100 | –
N=C(N)c1ccc2cc(C(=O)N3CCOCC3)n(Cc3cccc4ccccc34)c2c1 [Compound I-468] | 25 to 50 | –
CN(C)[C@H]1CC[C@@H](NC(=O)c2cc3ccc(C(=N)N)cc3n2Cc2cccc3ccccc23)CC1 [Compound I-470] | 75 to 100 | –
CN[C@H]1CC[C@H](NC(=O)c2cc3ccc(C(=N)N)cc3n2Cc2cccc3ccccc23)CC1 [Compound I-472] | 75 to 100 | –
N=C(N)c1ccc2cc(C(=O)N[C@H]3CC[C@H](C(=O)O)CC3)n(Cc3cccc4ccccc34)c2c1 [Compound I-473] | 25 to 50 | –
N=C(N)c1ccc2cc(C(=O)NCC3(CN)CCCCC3)n(Cc3cccc4ccccc34)c2c1 [Compound I-474] | – | D (D represents 75%≤I≤100%)
N=C(N)c1ccc2cc(C(=O)NC3CCNC(=O)C3)n(Cc3cccc4ccccc34)c2c1 (stereo not drawn) [Compound I-477] | 50 to 75 | –
N=C(N)c1ccc2cc(C(=O)NCCCN3CCCCC3)n(Cc3cccc4ccccc34)c2c1 [Compound I-478] | 75 to 100 | –
CC1CCCCN1CCCNC(=O)c1cc2ccc(C(=N)N)cc2n1Cc1cccc2ccccc12 (stereo not drawn) [Compound I-479] | – | C (C represents 50%≤I≤75%)
CN(C)C(=O)c1cc2ccc(C(=N)N)cc2n1Cc1cccc2ccccc12 [Compound I-482] | – | B (B represents 25%≤I≤50%)
N=C(N)c1ccc2cc(C(=O)O[C@H]3CC[C@H](N)CC3)n(Cc3cccc4ccccc34)c2c1 [Compound I-485, (1r,4r)-4-aminocyclohexyl 6-carbamimidoyl-1-(naphthalen-1-ylmethyl)-1H-indole-2-carboxylate] | 75 to 100 | –
N=C(N)c1ccc2cc(CO)n(Cc3cccc4ccccc34)c2c1 [Compound I-487, 2-(hydroxymethyl)-1-(naphthalen-1-ylmethyl)-1H-indole-6-carboximidamide] | 50 to 75 | –
N=C(N)c1ccc2cc(C(=O)O)n(-c3ccc4ccccc4c3)c2c1 [Compound I-488, 6-carbamimidoyl-1-(naphthalen-2-yl)-1H-indole-2-carboxylic Acid] | – | A (A represents 0%≤I≤25%)
N=C(N)c1ccc2cc(C(=O)O)n(-c3cccc4ccccc34)c2c1 [Compound I-489] | 0 to 25 | –

The next lines start with the values.

inhibition at 1 µM [%] | Mar-2 % inhibition at 1 uM | SMILES
75 to 100 | – | N=C(N)c1ccc2cc(C(=O)N[C@H]3CC[C@@H](N)CC3)n(Cc3cccc4ccccc34)c2c1 [Compound I-439]
75 to 100 | – | N=C(N)c1ccc2cc(C(=O)N[C@H]3CC[C@H](O)CC3)n(Cc3cccc4ccccc34)c2c1 [Compound I-440]
50 to 75 | – | N=C(N)c1ccc2cc(C(=O)N3CCCNCC3)n(Cc3cccc4ccccc34)c2c1 [Compound I-442]
0 to 25 | – | CN1CCN(C(=O)c2cc3ccc(C(=N)N)cc3n2Cc2cccc3ccccc23)CC1 [Compound I-443]
75 to 100 | – | N=C(N)c1ccc2cc(C(=O)NC3CCCNC3)n(Cc3cccc4ccccc34)c2c1 (stereo not drawn) [Compound I-445]
25 to 50 | – | N=C(N)c1ccc2cc(C(=O)Nc3ccc(N4CCC(F)C4)cc3)n(Cc3cccc4ccccc34)c2c1 (stereo not drawn) [Compound I-447]
25 to 50 | – | N=C(N)c1ccc2cc(C(=O)Nc3cccc(-c4ncc[nH]4)c3)n(Cc3cccc4ccccc34)c2c1 [Compound I-448]
75 to 100 | – | CN1CC[C@@H](NC(=O)c2cc3ccc(C(=N)N)cc3n2Cc2cccc3ccccc23)C1 [Compound I-450]
75 to 100 | – | N=C(N)c1ccc2cc(C(=O)NCCCCN)n(Cc3cccc4ccccc34)c2c1 [Compound I-452]
75 to 100 | – | N=C(N)c1ccc2cc(C(=O)N3CC4CC3CN4)n(Cc3cccc4ccccc34)c2c1 (stereo not drawn) [Compound I-454]
0 to 25 | – | NC(=O)c1ccc2cc(C(=O)NC3CCNCC3)n(Cc3cccc4ccccc34)c2c1 [Compound I-455, 1-(naphthalen-1-ylmethyl)-N2-(piperidin-4-yl)-1H-indole-2,6-dicarboxamide]
0 to 25 | – | NC(=O)c1ccc2cc(C(=O)N[C@@H]3CCNC3)n(Cc3cccc4ccccc34)c2c1 [Compound I-456]
0 to 25 | – | CN1CCC(NC(=O)c2cc3ccc(C(N)=O)cc3n2Cc2cccc3ccccc23)CC1 [Compound I-457]
25 to 50 | – | N=C(N)c1ccc2cc(C(=O)O)n(Cc3ccc4ccccc4c3)c2c1 [Compound I-459]
75 to 100 | – | CN1CCC(CNC(=O)c2cc3ccc(C(=N)N)cc3n2Cc2cccc3ccccc23)CC1 [Compound I-460, 6-carbamimidoyl-N-((1-methylpiperidin-4-yl)methyl)-1-(naphthalen-1-ylmethyl)-1H-indole-2-carboxamide]
75 to 100 | – | N=C(N)c1ccc2cc(C(=O)NC3CCC(N4CCCC4)CC3)n(Cc3cccc4ccccc34)c2c1 (stereo not drawn) [Compound I-462]
50 to 75 | – | N=C(N)c1ccc2cc(C(=O)NC3CCOCC3)n(Cc3cccc4ccccc34)c2c1 [Compound I-463]
75 to 100 | – | N=C(N)c1ccc2cc(C(=O)NCCN)n(Cc3cccc4ccccc34)c2c1 [Compound I-465]
75 to 100 | – | N=C(N)c1ccc2cc(C(=O)NC3CCCC(N)C3)n(Cc3cccc4ccccc34)c2c1 (stereo not drawn) [Compound I-467]
75 to 100 | – | CN(C)[C@H]1CC[C@H](NC(=O)c2cc3ccc(C(=N)N)cc3n2Cc2cccc3ccccc23)CC1 [Compound I-469]
25 to 50 | – | COC(=O)[C@H]1CC[C@H](NC(=O)c2cc3ccc(C(=N)N)cc3n2Cc2cccc3ccccc23)CC1 [Compound I-471]
75 to 100 | – | N=C(N)c1ccc2cc(C(=O)NC3CC4CC3CN4)n(Cc3cccc4ccccc34)c2c1 (stereo not drawn) [Compound I-480]
75 to 100 | – | N=C(N)c1ccc2cc(C(=O)NCCN3CCCCC3)n(Cc3cccc4ccccc34)c2c1 [Compound I-481]
– | C (C represents 50%≤I≤75%) | CNC(=O)c1cc2ccc(C(=N)N)cc2n1Cc1cccc2ccccc12 [Compound I-483]
25 to 50 | – | N=C(N)c1ccc2cc(C(=O)NS(=O)(=O)C3CC3)n(Cc3cccc4ccccc34)c2c1 [Compound I-484]
25 to 50 | – | COC(=O)c1cc2ccc(C(=N)N)cc2n1Cc1cccc2ccccc12 [Compound I-486, Methyl 6-carbamimidoyl-1-(naphthalen-1-ylmethyl)-1H-indole-2-carboxylate]
